According to PubChem BioAssay (NCI):
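48-hour exposure; five concentrations; linearly interpolated endpoints. TGI denotes the concentration required for complete inhibition of growth.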

How the values were obtained:
Experiment in all cases: growth of human tumour cells (NCI), 48 h
[1] = tested on: 786-0 renal
[2] = tested on: A498 renal
[3] = tested on: A549 NSCLC
[4] = tested on: ACHN renal
[5] = tested on: CCRF-CEM leukemia
[6] = tested on: COLO 205 colon
[7] = tested on: DLD-1 colon
[8] = tested on: DMS 114 small cell lung
[9] = tested on: DMS 273 small cell lung
[10] = tested on: EKVX NSCLC
[11] = tested on: HCC-2998 colon
[12] = tested on: HCT-116 colon
[13] = tested on: HCT-15 colon
[14] = tested on: HL-60(TB) leukemia
[15] = tested on: HOP-18 NSCLC
[16] = tested on: HOP-62 NSCLC
[17] = tested on: HOP-92 NSCLC
[18] = tested on: HT29 colon
[19] = tested on: IGROV1 ovarian
[20] = tested on: K-562 leukemia
[21] = tested on: KM20L2 colon
[22] = tested on: LXFL 529 NSCLC
[23] = tested on: M14 melanoma
[24] = tested on: M19-MEL melanoma
[25] = tested on: MALME-3M melanoma
[26] = tested on: MOLT-4 leukemia
[27] = tested on: NCI-H226 lung
[28] = tested on: NCI-H23 lung
[29] = tested on: NCI-H522 lung
[30] = tested on: OVCAR-4 ovarian
[31] = tested on: OVCAR-8 ovarian
[32] = tested on: RPMI-8226 leukemia
[33] = tested on: RXF 393 renal
[34] = tested on: SF-268 CNS
[35] = tested on: SF-295 CNS
[36] = tested on: SF-539 CNS
[37] = tested on: SK-MEL-28 melanoma
[38] = tested on: SK-MEL-5 melanoma
[39] = tested on: SK-OV-3 ovarian
[40] = tested on: SN12C renal
[41] = tested on: SNB-19 CNS
[42] = tested on: SNB-75 CNS
[43] = tested on: SNB-78 CNS
[44] = tested on: SR leukemia
[45] = tested on: SW-620 colon
[46] = tested on: U251 CNS
[47] = tested on: UACC-257 melanoma
[48] = tested on: UACC-62 melanoma
[49] = tested on: UO-31 renal
[50] = tested on: KM12 colon
[51] = tested on: LOX IMVI melanoma
[52] = tested on: NCI-H460 lung
[53] = tested on: OVCAR-3 ovarian
[54] = tested on: OVCAR-5 ovarian
[55] = tested on: SK-MEL-2 melanoma
[56] = tested on: TK-10 renal
[57] = tested on: XF 498 CNS

Measured: TGI

C=CCOC(C)n1c(C)cc(=O)n(C(C)OCC=C)c1=O (stereo not drawn)
not listed: [50] | [51] | [52] | [53] | [54] | [55] | [56] | [57]
> 100 µM: all other assays above

Nc1nc(-c2ccco2)cc(-c2ccco2)n1
not listed: [2] | [7] | [11] | [15] | [17] | [39] | [43] | [47]
> 100 µM: all other assays above
